Source: US8410095B2, “Thiazolopyrimidinone derivatives as PI3 kinase inhibitors” (GlaxoSmithKline LLC, priority 2009, dated 2013)

Target: T1, PI3Kβ (Homo sapiens, UniProt P42338)
T1 construct: made in house
Assay: HTRF in vitro profiling assay for PI3K inhibition, beta isoform
Type: biochemical
Details: in at least one experimental run; read-out: IC50 against PI3Kβ
Source text: (§1) HTRF In vitro Profiling Assays for PI3K Inhibition
(§2) The PI3-Kinase profiling assays were developed to measure the compound-dependent inhibition of the alpha, beta, delta, and gamma isoforms of PI3Kin an in vitro catalytic assay. This assay was developed and optimized from a kit produced by Upstate (Millipore catalog #33-017). Briefly, this procedure utilizes a pre-formed HTRF (Homogeneous Time-Resolved Fluorescence energy transfer) complex between four binding partners: 1) biotinylated PIP3, 2) GST tagged pleckstrin homology (PH) domain, 3) Europium labeled anti-GST monoclonal antibody, and 4) Streptavidin-Allophycocyanin (APC). The native PIP3 produced by PI 3-Kinase activity displaces biotin-PIP3 from the PH domain, resulting in the dissociation of the HTRF complex and a decrease in the fluorescence signal. The format of this assay is the same for all 4 isoforms of PI3K; the differences lie in the concentration of enzyme used to achieve the most robust signal. The alpha and delta assays are run at […] enzyme and the gamma assay is run at 1 nM enzyme. In addition, the alpha, beta and delta assays are run with 150 mM NaCl while the gamma assay is run in the absence of NaCl. The ATP concentration is 100 uM in the alpha, beta, and delta assays and 15 uM ATP in the gamma assay. All reactions are run at 10 uM PIP2
Compounds are serially diluted (3-fold in 100% DMSO) across a 384-well polypropylene mother plate from column I to column 12 and column 13 to column 24, to yield 11 concentrations for each test compound. Columns 6 and 18 contain only DMSO. Once titrations are made, 0.05 μL is transferred to a 384-well low-volume assay plate (Greiner 784076). This assay plate contains three pharmacological controls (known PI3K inhibitors) and 3 assay controls: (1) Enzyme without inhibitor; (2) Buffer minus enzyme, and (3) Buffer minus enzyme plus native PIP3. DMSO is stamped into all wells of columns 6 and 18. PIP3 is added at 40 μM in 1× Reaction buffer (1 μL of 200 μM PIP3) to alternating rows of column 18 (wells 18 B, D, F, H, J, L, N, P). […]

T1 sequence (P42338 whole entry): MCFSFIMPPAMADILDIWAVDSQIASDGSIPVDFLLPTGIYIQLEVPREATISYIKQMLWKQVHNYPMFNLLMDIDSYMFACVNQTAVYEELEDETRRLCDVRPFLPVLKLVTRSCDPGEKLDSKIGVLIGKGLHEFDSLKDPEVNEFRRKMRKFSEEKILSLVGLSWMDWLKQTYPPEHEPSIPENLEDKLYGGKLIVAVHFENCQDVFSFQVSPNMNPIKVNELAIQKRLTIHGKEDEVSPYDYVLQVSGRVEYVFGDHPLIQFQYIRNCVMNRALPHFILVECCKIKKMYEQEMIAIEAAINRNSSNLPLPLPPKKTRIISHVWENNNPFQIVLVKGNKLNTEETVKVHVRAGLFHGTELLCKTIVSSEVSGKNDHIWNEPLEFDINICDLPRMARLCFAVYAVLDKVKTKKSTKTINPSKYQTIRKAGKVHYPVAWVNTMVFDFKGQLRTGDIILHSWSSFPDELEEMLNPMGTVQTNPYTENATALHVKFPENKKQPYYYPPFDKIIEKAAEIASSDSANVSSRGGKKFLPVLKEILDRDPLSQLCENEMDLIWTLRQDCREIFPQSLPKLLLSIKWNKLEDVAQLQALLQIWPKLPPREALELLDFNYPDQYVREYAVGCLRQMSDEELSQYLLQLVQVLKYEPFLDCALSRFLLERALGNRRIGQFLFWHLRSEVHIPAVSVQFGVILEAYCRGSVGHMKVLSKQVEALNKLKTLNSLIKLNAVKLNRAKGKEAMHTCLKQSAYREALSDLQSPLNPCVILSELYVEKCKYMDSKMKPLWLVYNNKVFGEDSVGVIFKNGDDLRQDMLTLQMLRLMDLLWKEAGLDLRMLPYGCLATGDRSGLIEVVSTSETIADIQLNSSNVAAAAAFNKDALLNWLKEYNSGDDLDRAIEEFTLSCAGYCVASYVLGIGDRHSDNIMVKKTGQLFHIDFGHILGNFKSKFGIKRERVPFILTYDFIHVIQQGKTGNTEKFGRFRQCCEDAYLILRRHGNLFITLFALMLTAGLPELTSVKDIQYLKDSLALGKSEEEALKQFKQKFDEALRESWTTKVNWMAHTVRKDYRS
T1 sequence (P27986 whole entry partner): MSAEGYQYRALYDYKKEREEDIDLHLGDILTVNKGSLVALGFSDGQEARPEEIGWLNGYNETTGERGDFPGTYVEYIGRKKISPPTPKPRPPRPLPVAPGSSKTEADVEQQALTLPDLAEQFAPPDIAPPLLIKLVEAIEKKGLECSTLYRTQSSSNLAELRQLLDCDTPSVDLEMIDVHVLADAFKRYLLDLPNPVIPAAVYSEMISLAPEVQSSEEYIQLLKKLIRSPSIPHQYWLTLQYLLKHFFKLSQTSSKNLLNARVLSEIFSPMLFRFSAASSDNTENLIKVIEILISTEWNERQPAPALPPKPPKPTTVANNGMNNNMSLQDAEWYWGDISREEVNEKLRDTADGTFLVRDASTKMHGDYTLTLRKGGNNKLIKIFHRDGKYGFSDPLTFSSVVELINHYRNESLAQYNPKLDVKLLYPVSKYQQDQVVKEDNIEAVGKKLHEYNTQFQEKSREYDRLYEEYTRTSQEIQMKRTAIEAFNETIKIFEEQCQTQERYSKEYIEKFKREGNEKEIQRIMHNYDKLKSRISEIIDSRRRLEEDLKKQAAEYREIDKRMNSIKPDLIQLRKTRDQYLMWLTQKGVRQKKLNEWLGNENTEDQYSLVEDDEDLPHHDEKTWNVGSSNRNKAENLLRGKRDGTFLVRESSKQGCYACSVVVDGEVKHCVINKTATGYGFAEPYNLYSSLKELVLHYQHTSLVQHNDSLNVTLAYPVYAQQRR

Q: `O=c1ncn(Cc2ccccc2C(F)(F)F)c2nc(N3CCOCC3)sc12` [Example 1, 2-(4-morpholinyl)-4-{[2(trifluoromethyl)phenyl]methyl}[1,3]thiazolo[4,5-d]pyrimidin-7(4H)-one] was tested. Which IC50 did it give?
A: The IC50 was 320 nM.

Q: `Cc1c(Cl)cccc1Cn1cnc(=O)c2sc(N3CCOCC3)nc21` [Example 3, 4-[(3-chloro-2-methylphenyl)methyl]-2-(4-morpholinyl)[1,3]thiazolo[4,5-d]pyrimidin-7(4H)-one] was tested. Which IC50 did it give?
A: The IC50 was 400 nM.

Q: Which IC50 does the source give for `Cc1c(Cn2c(C)nc(=O)c3sc(N4CCOCC4)nc32)cccc1C(F)(F)F` [Example 59, 5-methyl-4-{[2-methyl-3-(trifluoromethyl)phenyl]methyl}-2-(4-morpholinyl)[1,3]thiazolo[4,5-d]pyrimidin-7(4H)-one] here?
A: The IC50 was 0.5 nM.

Target: T2, PI3Kδ (Homo sapiens, UniProt O00329)
T2 construct: made in house
T2 sequence (O00329 whole entry): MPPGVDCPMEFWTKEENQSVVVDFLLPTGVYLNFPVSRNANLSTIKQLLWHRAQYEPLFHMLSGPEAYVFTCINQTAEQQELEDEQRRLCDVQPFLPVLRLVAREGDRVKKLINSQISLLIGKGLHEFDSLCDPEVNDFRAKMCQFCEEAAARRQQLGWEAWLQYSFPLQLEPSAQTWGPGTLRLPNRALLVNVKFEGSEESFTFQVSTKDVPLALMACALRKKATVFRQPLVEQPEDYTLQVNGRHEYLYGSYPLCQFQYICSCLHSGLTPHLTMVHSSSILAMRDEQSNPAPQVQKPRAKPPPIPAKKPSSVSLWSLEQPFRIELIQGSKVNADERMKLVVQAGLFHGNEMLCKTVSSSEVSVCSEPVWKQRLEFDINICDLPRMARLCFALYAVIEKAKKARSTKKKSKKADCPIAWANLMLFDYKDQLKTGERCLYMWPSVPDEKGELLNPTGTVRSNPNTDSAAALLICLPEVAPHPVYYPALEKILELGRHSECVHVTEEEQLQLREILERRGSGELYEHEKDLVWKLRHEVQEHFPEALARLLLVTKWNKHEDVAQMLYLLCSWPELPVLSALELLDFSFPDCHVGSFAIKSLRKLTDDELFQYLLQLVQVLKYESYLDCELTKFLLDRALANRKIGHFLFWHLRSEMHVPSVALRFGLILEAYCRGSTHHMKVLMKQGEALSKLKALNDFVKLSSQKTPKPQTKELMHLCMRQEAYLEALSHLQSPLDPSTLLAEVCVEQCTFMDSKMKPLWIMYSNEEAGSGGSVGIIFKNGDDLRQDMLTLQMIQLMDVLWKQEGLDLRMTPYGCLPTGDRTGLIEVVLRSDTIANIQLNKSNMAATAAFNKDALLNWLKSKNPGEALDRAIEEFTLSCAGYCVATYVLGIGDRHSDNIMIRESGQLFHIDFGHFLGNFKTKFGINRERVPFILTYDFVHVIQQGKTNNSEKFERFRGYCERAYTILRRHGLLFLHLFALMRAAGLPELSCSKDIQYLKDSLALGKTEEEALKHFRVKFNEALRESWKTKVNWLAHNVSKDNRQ
T2 sequence (P27986 2-724 partner limits assumed): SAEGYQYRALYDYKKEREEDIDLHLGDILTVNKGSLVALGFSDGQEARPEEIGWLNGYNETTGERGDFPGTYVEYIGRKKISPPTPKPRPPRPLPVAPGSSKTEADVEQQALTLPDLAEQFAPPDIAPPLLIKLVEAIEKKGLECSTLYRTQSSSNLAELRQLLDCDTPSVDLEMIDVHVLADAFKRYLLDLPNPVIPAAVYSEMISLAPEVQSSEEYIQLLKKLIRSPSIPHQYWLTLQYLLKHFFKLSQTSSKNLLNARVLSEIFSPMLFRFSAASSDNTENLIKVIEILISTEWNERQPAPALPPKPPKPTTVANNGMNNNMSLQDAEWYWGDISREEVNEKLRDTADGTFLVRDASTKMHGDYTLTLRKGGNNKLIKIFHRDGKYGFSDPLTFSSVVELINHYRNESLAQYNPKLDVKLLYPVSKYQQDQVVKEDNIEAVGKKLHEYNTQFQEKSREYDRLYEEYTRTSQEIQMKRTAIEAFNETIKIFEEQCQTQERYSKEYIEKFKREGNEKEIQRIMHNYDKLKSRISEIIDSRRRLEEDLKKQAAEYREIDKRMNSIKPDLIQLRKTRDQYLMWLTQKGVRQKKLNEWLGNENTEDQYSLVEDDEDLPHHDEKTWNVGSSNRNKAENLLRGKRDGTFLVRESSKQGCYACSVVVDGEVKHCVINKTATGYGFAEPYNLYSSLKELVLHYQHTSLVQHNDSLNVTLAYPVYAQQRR
Assay: HTRF in vitro profiling assay for PI3K inhibition, delta isoform
Type: biochemical
Details: in at least one experimental run; read-out: IC50 against PI3Kδ
Source text: as §1, §2
Compounds are serially diluted (3-fold in 100% DMSO) across a 384-well polypropylene mother plate from column I to column 12 and column 13 to column 24, to yield 11 concentrations for each test compound. Columns 6 and 18 contain only DMSO. Once titrations are made, 0.05 μL is transferred to a 384-well low-volume assay plate (Greiner 784076). This assay plate contains three pharmacological controls (known PI3K inhibitors) and 3 assay controls: (1) Enzyme without inhibitor; (2) Buffer minus enzyme, and (3) Buffer minus enzyme plus native PIP3. DMSO is stamped into all wells of columns 6 and 18. PIP3 is added at 40 μM in 1× Reaction buffer (1 μL of 200 μM PIP3) to alternating rows of column 18 (wells 18 B, D, F, H, J, L, N, P). The no-enzyme control reactions are run in wells 18 A, C, E, G, I, K, M, O (0.1 μL of 100% DMSO).
The PI3-Kinase profiling assay was optimized using the HTRF kit provided by Upstate (Millipore). The assay kit contains seven reagents: 1) 4× Reaction Buffer; 2) native PIP2 (substrate); 3) Stop A (EDTA); 4) Stop B (Biotin-PIP3); 5) Detection Mix A (Streptavidin-APC); 6) Detection Mix B (Eu-labeled Anti-GST plus GST-tagged PH-domain); 7) Detection Mix C (KF). In addition, the following items were obtained or purchased: PI3Kinase (prepared by GSK BR&AD), dithiothreitol (Sigma, D-5545), Adenosine-5′-triphosphate (ATP, Teknova cat. #A0220), native PIP3 (1,2-dioctanoyl-sn-glycero-3-[phosphoinositil-3,4,5-triphosphate]tetraammonium salt (Avanti polar lipids, 850186P), DMSO (Sigma, 472301).
PI3Kinase Reaction Buffer is prepared by diluting the stock 1:4 with de-ionized water. Freshly prepared DTT is added at a final concentration of 5 mM on the day of use. Enzyme addition and compound pre-incubation are initiated by the addition of 2.5 μL of PI3K (at twice its final concentration) in 1× reaction buffer to all wells using a Multidrop Combi. Plates are incubated at room temperature for 15 minutes. Reactions are initiated by addition of 2.5 μL of 2× substrate solution (PIP2 and ATP in 1× reaction buffer) using a Multidrop Combi. Plates are incubated at room temperature for one hour. Reactions are quenched by the addition of 2.5 μL of stop solution (Stop A and Stop B pre-mixed at a ratio of 5:1, respectively) to all wells using the Multidrop Combi. […]

Q: `N#Cc1cccc(Cn2cnc(=O)c3sc(N4CCOCC4)nc32)c1` [Example 20, 3-{[2-(4-morpholinyl)-7-oxo[1,3]thiazolo[4,5-d]pyrimidin-4(7H)-yl]methyl}benzonitrile] was tested. Which IC50 did it give?
A: Its IC50 is 8 nM.

Same assay, conditions: in at least one experimental run; read-out: pIC50 against PI3Kδ (converted)

Q: Which IC50 does the source give for `CCc1nc(=O)c2sc(N3CCOCC3)nc2n1Cc1cccc(Cl)c1C` [Example 75, 4-[(3-chloro-2-methylphenyl)methyl]-5-ethyl-2-(4-morpholinyl)[1,3]thiazolo[4,5-d]pyrimidin-7(4H)-one] here?
A: The IC50 was 0.158 nM.

Q: `Cc1c(Cn2c(-c3ccccc3)nc(=O)c3sc(N4CCOCC4)nc32)cccc1C(F)(F)F` [Example 79, 4-{[2-methyl-3-(trifluoromethyl)phenyl]methyl}-2-(4-morpholinyl)-5-phenyl[1,3]thiazolo[4,5-d]pyrimidin-7(4H)-one] was tested. Which IC50 did it give?
A: Its IC50 is 50.1 nM.

Q: Which IC50 does the source give for `Cc1c(Cl)cccc1Cn1c(C2CCCO2)nc(=O)c2sc(N3CCOCC3)nc21` (stereo not drawn) [Example 83, 4-[(3-chloro-2-methylphenyl)methyl]-2-(4-morpholinyl)-5-(tetrahydro-2-furanyl)[1,3]thiazolo[4,5-d]pyrimidin-7(4H)-one] here?
A: Its IC50 is 1.26 nM.

Q: For `Cc1c(Cl)cccc1Cn1c(CO)nc(=O)c2sc(N3CCOCC3)nc21` [Example 84, 4-[(3-chloro-2-methylphenyl)methyl]-5-(hydroxymethyl)-2-(4-morpholinyl)[1,3]thiazolo[4,5-d]pyrimidin-7(4H)-one], which IC50 is on record?
A: Its IC50 is 0.126 nM.

Q: Which IC50 does the source give for `Cc1c(Cl)cccc1Cn1c(CN)nc(=O)c2sc(N3CCOCC3)nc21` [Example 111, 5-(aminomethyl)-4-[(3-chloro-2-methylphenyl)methyl]-2-(4-morpholinyl)[1.3]thiazolo[4,5-d]pyrimidin-7(4H)-one] here?
A: The IC50 was 2.51 nM.
